{"source": "patent US11185593B2", "about": "“Alkylating agent for alkylating target with driver oncogene mutation” (Chiba Prefecture, priority 2013, dated 2021)", "key": {"[1]": {"system": "KRAS gene", "experiment": "Semi-quantitative analysis of gene expression by RT-PCR", "assay_type": "cell-based, human", "settings": "LS180 (KRAS gene codon 12 mutation), 50 nM, 48 hours, FIG. 11B", "method": "HT29 and LS180 were each cultured in a 12-well plate. On the following day, the cells were treated with 50 nM KR12 or KR13, and were then cultured for 48 hours. Thereafter, the cultured cells were harvested, and RNA was then extracted. For the extraction, RT-PCR was carried out using RNeasy mini kit (Qiagen, CA). Subsequently, using the extracted RNA as a template, cDNA for reverse transcription was prepared by employing Super Script VILO cDNA Synthesis Kit (Invitrogen, CA). Using the prepared cDNA as a template, PCR was carried out. After a reaction had been carried out at 94° C. for 5 minutes, a reaction cycle of 94° C.-30 seconds, 55° C.-30 seconds, and 72° C.-30 seconds was repeated 20 times. Finally, an elongation reaction was carried out at 72° C. for 7 minutes. The PCR product was subjected to electrophoresis on 2% agarose gel. The amount of the PCR product was calculated using a photograph of a band stained with ethidium bromide.\nThe below-mentioned primer set was used in PCR.\nA forward primer (sense) and a reverse primer (antisense), which amplify both mutant and wild-type KRAS genes, and a forward primer (sense) and a reverse primer (antisense) for an RPS18 (ribosomal protein S18) gene used as an internal standard are shown below."}, "[2]": {"system": "active-type KRAS proteins (p21-ras proteins)", "experiment": "Measurement of RAS activity (RAS activation assay kit)", "assay_type": "cell-based, human", "settings": "LS180, 50 nM, 48 hours, FIG. 12A", "method": "Cells (the number of cells: 2×10^6 cells/100 mm plate or 1×10^6 cells/100 mm plate) were cultured in a complete nutrient medium, and on the following day, the cultured cells were treated with 50 nM KR12 or KR13, followed by culture for 48 hours. Thereafter, the resulting cells were dissolved in a magnesium lysis buffer (MLB), and a RAS activity level was then measured using a RAS activation assay kit (Millipore, MA)."}, "[3]": {"system": "gene sequence of the codon 12 mutation of the KRAS gene", "experiment": "Confirmation of alkylation of KRAS codon 12 mutation sequence, high resolution gel electrophoresis", "assay_type": "biochemical", "settings": "23° C., 17 hours", "method": "A 25 μM pair of two fragments (5′-[…]-3′ (SEQ ID NO: 1) and 3′-[…]-5′ (SEQ ID NO: 2)) (final volume: 50 μL) was annealed to obtain a DNA fragment. The annealed fragment was ligated to a pGEM-T easy vector manufactured by […]. Thereafter, Escherichia coli (JM109) competent cells manufactured by Promega were transformed with the obtained product, and the resulting cells were then cultured at 37° C. overnight in a plate comprising an LB medium containing 100 μg/mL ampicillin. A transformed white colony of interest was identified by colony direct PCR using a 500 nM primer set (T7: 5′-TAATACGACTCACTATAGG-3′ (SEQ ID NO: 3); and sp6: 5′-[…]-3′ (SEQ ID NO: 4)) and 10 μL of a reaction solution containing 1 U GoTaq® Green Master Mix manufactured by Promega. The following amplification cycle was applied. […]\nA DNA fragment, 213 base pairs in length, the 5′-terminus of which had been labeled with Texas Red, was synthesized using the above-described plasmid and primers (sp6: 5′-ATTTAGGTGACACTATAG-3′ (SEQ ID NO: 5), and T7: 5′-[…]-3′ (SEQ ID NO: 6), with 5′-terminus labeled with Texas Red). The obtained DNA fragment, the 5′-terminus of which had been labeled with Texas Red, was purified using PCR-Clean Up Kit manufactured by Sigma, and the concentration was then determined by UV absorption. […]"}, "[4]": {"experiment": "Mass spectrometry of mouse urine and mouse bile for KR12 and decomposed product", "assay_type": "in vivo", "method": "The FITC-labeled KR12 (10 nmol) was administered into the vein of nude mice, into which SW480 cells had been transplanted, and thereafter, their fluorescent image was observed over time. […] Thereafter, twenty-four hours after the administration, the mice were dissected, and incorporation of FITC into various organs was observed. […] Furthermore, localization of KR12 in the cells of tumor, liver, and kidney was observed under a fluorescence microscope. […] The presence of absence of HR12 and a decomposed product thereof in mouse urine and mouse bile was examined by mass spectrometry. […] In the case of tumor cells, lipids are required for the synthesis of a cell membrane or the like, together with cell division, and thus, in general, incorporation of lipids is increased. In addition, excretion via the lymphatics is undeveloped. […] Such accumulation of KR12 in the liver and the kidney is observed even in normal cells. However, since KR12 cannot retain in the cells, it is discharged into bile and/or urine, and is then excreted from these organs. That is, KR12 has excellent effects that it is promptly discharged from normal cells and retains in cancer cells for a long period of time."}}, "data": [{"smiles": "CC(=O)Nc1cn(C)c(C(=O)Nc2cc(C(=O)NCCC(=O)Nc3cn(C)c(C(=O)Nc4cn(C)c(C(=O)Nc5cc(C(=O)Nc6cn(C)c(C(=O)NCCCC(=O)Nc7cc(C(=O)Nc8cn(C)c(C(=O)NCCC(=O)Nc9cc(C(=O)Nc%10cc(C(=O)Nc%11ccc%12[nH]c(C(=O)N%13CC(CCl)c%14c%13cc(O)c%13ccccc%14%13)cc%12c%11)n(C)c%10)n(C)c9)n8)n(C)c7)n6)n(C)c5)n4)n3)n(C)c2)n1", "note": "(centres unmarked) [KR12]", "values": [{"measurement": "expression of the KRAS gene", "setting": "[1]", "value": "significantly suppressed"}, {"measurement": "activity of the detected KRAS protein (RAS activity level)", "setting": "[2]", "value": "decreased"}, {"measurement": "alkylation of the gene sequence of the codon 12 mutation of the KRAS gene", "setting": "[3]; mutated KRAS sequence of AsPC-1 cells (G12D), FIG. 7B", "value": "specifically induced concentration-dependent alkylation"}, {"measurement": "alkylation of the gene sequence of the codon 12 mutation of the KRAS gene", "setting": "[3]; mutated KRAS sequence of SW480 cells (G12V), FIG. 7A", "value": "specifically induced concentration-dependent alkylation"}, {"measurement": "metabolic degradation of excreted compound", "setting": "[4]", "value": "discharged in a state in which it was not subjected to metabolic degradation"}]}]}
